22 molecules from patent publication US4843087A (priority 1986, dated 1989) can be followed below.

For series [1], the system named is human rhinovirus (HRV) serotypes. In words: microbe, parasite or virus in culture. In kind it is cell-based. Conditions: for MIC50: read-out: Rhinovirus MIC50.
Series [2] relates to poliovirus, type 2, MEF strain. The series is described as follows: animal or person. In kind it is in vivo, white Swiss mice. Conditions: Enterovirus C, in Mus musculus, po, 336 h, read-out: Survivors Day 14 Post Infection.
Series [3] relates to Polio 2. The series is described as follows: microbe, parasite or virus in culture. In kind it is cell-based, poliovirus. Conditions: Enterovirus C, HeLa, read-out: Polio 2 MIC.
The nature of series [4]: blood plasma concentration in dogs after oral administration. Conditions: dog, beagle dogs, fasted, oral 25 mg/kg in corn oil, up to six hours. In kind it is in vivo. As for the experimental part:
The blood plasma concentrations of the compounds of the invention were measured in beagle dogs by the following procedure: Animals ranging in weight from 8.5 to 11.5 kg were fasted overnight prior to oral administration of 25 mg/kg of the test compound dissolved in corn oil (125 mg/ml) and contained in gelatin capsules. Blood samples were collected at selected time intervals up to six hours post-medication and analyzed by standard chromatographic procedures to determine the mean maximum concentration of the test compound in micrograms per milliliter [Mean Cmax, μg/ml].

Series [5] concerns coxsackie virus A-9. In words: in vivo efficacy in coxsackie virus A-9 mouse infection model.
Series [6] concerns enteroviruses. In words: microbe, parasite or virus in culture. In kind it is cell-based. As to conditions: Enterovirus, read-out: MIC80.
For series [7], the system named is echovirus-9. In words: in vivo efficacy in echovirus-9 mouse infection model.

Molecules are shown by their SMILES. ≈ marks a conversion by molar mass, not a printed value. Read-outs that look alike come from different tables or passages of the source.

Consider `Cc1cc(CCCCCCCOc2ccc(C3=NC(C)CO3)cc2)on1` (racemic) [Example 3, 5-{7-[4-(4,5-Dihydro-4-methyl-2-oxyazolyl)phenoxy]heptyl}-3-methylisoxazole], for which the MIC50 in series [1] is 0.07 µg/mL (≈ 0.196 µM). In addition, the IC (MIC80 of serotype panel) in series [1] (read-out: Rhinovirus MIC80) is 1.6 µg/mL. Also, in series [2], the responders at 100 mg/kg is 45%, the responders at 200 mg/kg was 60% and the responders at 400 mg/kg was 70%. Also, the MIC in series [3] stood at 1.2 µg/mL (≈ 3.37 µM).
Turning to `Cc1cc(CCCCCOc2c(Cl)cc(C3=NCCO3)cc2Cl)on1` [5-{5-[2,6-Dichloro-4-(4,5-dihydro-2-oxazolyl)phenoxyl]-pentyl}-3-methylisoxazole], the IC (MIC80 of serotype panel) in series [1] (read-out: MIC80) was 0.23 µg/mL; in series [1] (read-out: Rhinovirus MIC80), 0.126 µg/mL; in series [6], 1.6 µg/mL. In addition, the MIC50 in series [1] stood at 0.07 µg/mL (≈ 0.183 µM). Moreover, the responders at 50 mg/kg in series [2] is 10%. Further, the responders at 100 mg/kg in series [2] was 25%. Also, the responders at 200 mg/kg in series [2] was 30%. In addition, the MIC in series [3] came out at 0.59 µg/mL (≈ 1.54 µM). For the same molecule, in series [4], the highest level (Cmax) was 1570 ± 350 ng/mL. Moreover, the ED50 in series [5] (Mus musculus, po, read-out: PD50) was determined as 2.5 mg/kg. For the same molecule, the “oral activity in coxsackie virus A-9 infections” value in series [5] (mouse infection model, oral) was “potent oral activity”. Besides, the “oral activity in echovirus-9 infections” value in series [7] is “potent oral activity”.
Consider `Cc1cc(CCCCCCCc2ccc(C3=NCCO3)cc2)on1` [6(g), 5-{7-[4-(4,5-Dihydro-2-oxazolyl)phenyl]heptyl}-3-methylisoxazole], for which, in series [2], the responders at 50 mg/kg was 25%, the responders at 100 mg/kg is 85% and the responders at 200 mg/kg was 95%. Moreover, the MIC in series [3] came to 0.09 µg/mL (≈ 0.276 µM).
Turning to `Cc1cc(CCCCCOc2ccc(C3=NCCO3)cc2)no1` [7(k), 3-{5-[4-(4,5-Dihydro-2-oxazolyl)phenoxy]pentyl}-5-methylisoxazole], in series [1], the MIC50 came to 1.3 µg/mL (≈ 4.14 µM). In addition, the IC (MIC80 of serotype panel) in series [1] (read-out: Rhinovirus MIC80) stood at 74.6 µg/mL. For the same molecule, in series [2], the responders at 100 mg/kg is 80%. The MIC in series [3] is 0.0012 µg/mL (≈ 0.00382 µM).
As for `Cc1cc(CCCCCCCOc2ccc(C3=NCCO3)cc2Cl)on1` [13(c), 5-{7-[2-Chloro-4-(4,5-dihydro-2-oxazolyl)phenoxy]heptyl}-3-methylisoxazole], the MIC50 in series [1] stood at 0.34 µg/mL (≈ 0.902 µM). Moreover, the IC (MIC80 of serotype panel) in series [1] (read-out: Rhinovirus MIC80) was 1.06 µg/mL. Also, in series [2], the responders at 25 mg/kg turned out to be 20%, the responders at 50 mg/kg is 61.1% and the responders at 100 mg/kg is 80%. In addition, in series [3], the MIC is 0.17 µg/mL (≈ 0.451 µM).
For `Cc1cc(CCCCCOc2ccc(C3=NCCO3)cc2Cl)on1` [15(b), 5-{5-[2-Chloro-4-(4,5-dihydro-2-oxazolyl)phenoxy]pentyl}-3-methylisoxazole], the MIC50 in series [1] was determined as 0.08 µg/mL (≈ 0.229 µM). Moreover, the IC (MIC80 of serotype panel) in series [1] (read-out: Rhinovirus MIC80) worked out at 0.35 µg/mL. Moreover, in series [2], the responders at 50 mg/kg is 40% and the responders at 100 mg/kg was 60%. The MIC in series [3] was 0.12 µg/mL (≈ 0.344 µM).
Turning to `Cc1cc(CCCCCOc2c(Cl)cc(-c3nc(C)c(C)o3)cc2Cl)on1` [119(c), 5-{5-[2,6-Dichloro-4-(4,5-dimethyl-2-oxazolyl)phenoxy]pentyl}-3-methylisoxazole], the MIC50 in series [1] worked out at 0.32 µg/mL (≈ 0.782 µM). In addition, in series [1] (read-out: Rhinovirus MIC80), the IC (MIC80 of serotype panel) was determined as 0.53 µg/mL. Besides, the Cmax (as a rule, the highest concentration seen after dosing) in series [4] is 2130 ± 480 ng/mL.
Take `Cc1cc(CCCCCCCOc2ccc(C3=NCCO3)cc2)on1` [Example 1(c), 5-{7-[4-(4,5-Dihydro-2-oxazolyl)phenoxy]heptyl}-3-methylisoxazole]: the MIC50 in series [1] was determined as 1.7 µg/mL (≈ 4.96 µM). Besides, the IC (MIC80 of serotype panel) in series [1] (read-out: Rhinovirus MIC80) came out at 99 µg/mL. Besides, in series [2], the responders at 50 mg/kg is 70% and the responders at 100 mg/kg is 90%. In series [3], the MIC turned out to be 0.04 µg/mL (≈ 0.117 µM).
For `Cc1cc(CCCCCOc2ccc(C3=NCCO3)cc2)on1` [Example 2, 5-{5-[4-(4,5-Dihydro-2-oxazolyl)phenoxy]pentyl}-3-methylisoxazole], in series [1], the MIC50 was 0.38 µg/mL (≈ 1.21 µM). Further, the IC (MIC80 of serotype panel) in series [1] (read-out: Rhinovirus MIC80) stood at 2.2 µg/mL. In addition, the responders at 77 mg/kg in series [2] is 85%. In addition, the MIC in series [3] amounted to 0.6 µg/mL (≈ 1.91 µM).
`Cc1cc(CCCCCOc2c(C)cc(C3=NCCO3)cc2C)on1` [Example 58, 5-{5-[4-(4,5-Dihydro-2-oxazolyl)-2,6-dimethylphenoxy]pentyl}-3-methylisoxazole]: the MIC50 in series [1] was determined as 0.15 µg/mL (≈ 0.438 µM). The IC (MIC80 of serotype panel) in series [1] (read-out: Rhinovirus MIC80) worked out at 0.43 µg/mL. Besides, the MIC in series [3] was 3.1 µg/mL (≈ 9.05 µM). The molecule also came in with a Cmax in series [4] of 4260 ± 470 ng/mL.
For `Cc1cc(CCCCCCOc2c(Cl)cc(C3=NCCO3)cc2Cl)on1` [Example 106, 5-{6-[2,6-Dichloro-4-(4,5-dihydro-2-oxazolyl)phenoxy]hexyl}-3-methylisoxazole] the same measures were 0.18 µg/mL (≈ 0.453 µM), 0.41 µg/mL, 0.58 µg/mL (≈ 1.46 µM) and 1530 ± 150 ng/mL.
For `Cc1cc(CCCCCOc2c(Cl)cc(C3=NC(C)CO3)cc2Cl)on1` (centres unmarked) [Example 107, 5-{5-[2,6-Dichloro-4-(4,5-dihydro-4-methyl-2-oxazolyl)phenoxy]pentyl}-3-methylisoxazole], in that order: 0.12 µg/mL (≈ 0.302 µM), 0.37 µg/mL, 4.6 µg/mL (≈ 11.6 µM) and 1530 ± 140 ng/mL.
For `Cc1cc(CCCCC(C)Oc2c(Cl)cc(C3=NCCO3)cc2Cl)on1` (centres unmarked) [Example 109, 5-{5-[2,6-Dichloro-4-(4,5-dihydro-2-oxazolyl)phenoxy]hexyl}-3-methylisoxazole] the same measures were 0.16 µg/mL (≈ 0.403 µM), 0.89 µg/mL, 2.9 µg/mL (≈ 7.3 µM) and 2110 ± 610 ng/mL.
`CCN(CC)Cc1cc(CCCCCCCOc2ccc(C3=NCCO3)cc2)on1` [Example 137, 5-{7-[4-(4,5-Dihydro-2-oxazolyl)phenoxy]heptyl}-3-(diethylaminomethyl)isoxazole]: in series [1], the MIC50 amounted to 3.25 µg/mL (≈ 7.87 µM). Moreover, the IC (MIC80 of serotype panel) in series [1] (read-out: Rhinovirus MIC80) came out at 6.2 µg/mL. The MIC in series [3] was 2 µg/mL (≈ 4.84 µM).
Take `C=Cc1cc(C2=NCCO2)ccc1OCCCCCc1cc(C)no1` [Example 141, 5-{5-[2-Ethenyl-4-(4,5-dihydro-2-oxazolyl)phenoxy]pentyl}-3-methylisoxazole]: in series [1], the MIC50 stood at 0.25 µg/mL (≈ 0.734 µM). Moreover, the IC (MIC80 of serotype panel) in series [1] (read-out: Rhinovirus MIC80) stood at 0.54 µg/mL. In addition, the MIC in series [3] came to 0.23 µg/mL (≈ 0.676 µM).
For `Cc1cc(CCCCCCc2ccc(C3=NCCO3)cc2)on1` [Example 142], in that order: 0.26 µg/mL (≈ 0.832 µM), 6.2 µg/mL and 0.37 µg/mL (≈ 1.18 µM).
On to `Cc1cc(CCCCCOc2c(C)cc(-c3cocn3)cc2C)on1` [Example 144, 5-{5-[2,6-Dimethyl-4-(4-oxazolyl)phenoxy]pentyl}-3-methylisoxazole], for which, in series [1], the MIC50 amounted to 0.14 µg/mL (≈ 0.411 µM). Also, the IC (MIC80 of serotype panel) in series [1] (read-out: Rhinovirus MIC80) was determined as 1.1 µg/mL. In addition, in series [3], the MIC is 12.5 µg/mL (≈ 36.7 µM).
As to `Cc1cc(CCCCCOc2ccc(-c3ncc(Cl)o3)cc2)on1` [Example 145, 5-{5-[4-(5-Chloro-2-oxazolyl)phenoxy]pentyl}-3-methylisoxazole], the MIC50 in series [1] is 0.2 µg/mL (≈ 0.577 µM). Further, the IC (MIC80 of serotype panel) in series [1] (read-out: Rhinovirus MIC80) was 0.29 µg/mL. Besides, the MIC in series [3] was determined as 0.033 µg/mL (≈ 0.0952 µM).
As for `CCOC(=O)c1cc(C2=NCCO2)ccc1OCCCCCc1cc(C)no1` [Example 146, 5-{5-[2-Ethoxycarbonyl-4-(4,5-dihydro-2-oxazolyl)phenoxy]pentyl}-3-methylisoxazole], in series [1], the MIC50 came to 0.29 µg/mL (≈ 0.75 µM). Also, the IC (MIC80 of serotype panel) in series [1] (read-out: Rhinovirus MIC80) was found to be 0.55 µg/mL. Besides, the MIC in series [3] was determined as 4.2 µg/mL (≈ 10.9 µM).
For `Cc1cc(CCCCCOc2ccc(C3=NCCO3)cc2C=CBr)on1` [Example 147, 5-{5-[2-(2-Bromoethenyl)-4-(4,5-dihydro-2-oxazolyl)phenoxy]pentyl}-3-methylisoxazole], in that order: 0.23 µg/mL (≈ 0.549 µM), 0.76 µg/mL and 0.4 µg/mL (≈ 0.954 µM).
For `COC(=O)CCC(=O)OCc1cc(CCCCCOc2c(Cl)cc(C3=NCCO3)cc2Cl)on1` [Example 148, 5-{5-[2,6-Dichloro-4-(4,5-dihydro-2-oxazolyl)phenoxy]pentyl}-3-isoxazolylmethyl methyl butanedioate] the same measures were 0.17 µg/mL (≈ 0.331 µM), 0.45 µg/mL and 8.5 µg/mL (≈ 16.6 µM).
Consider `Cc1cc(CCC#CCOc2c(Cl)cc(C3=NCCO3)cc2Cl)on1` [Example 151, 5-{5-[2,6-Dichloro-4-(4,5-dihydro-2-oxazolyl)phenoxy]-3-pentynyl}-3-methylisoxazole], for which, in series [1], the MIC50 turned out to be 0.2 µg/mL (≈ 0.527 µM). For the same molecule, the IC (MIC80 of serotype panel) in series [1] (read-out: Rhinovirus MIC80) came out at 1.2 µg/mL. The MIC in series [3] stood at 0.4 µg/mL (≈ 1.05 µM).
